Results as given in PubChem BioAssay (NCI).
“And” between values parts separate entries of the source, which are not always exact repeats. Equal values may be shown once.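 Test compounds were applied to cells in 96-well plates for 48 hours at 5 doses. GI50 is the concentration that inhibits growth by half. TGI marks complete inhibition of growth.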

Tests used:
Experiment in all cases: inhibition of tumour cell growth, NCI panel, 48 h
HCT-116 colon = system: HCT-116 colon
ACHN renal = system: ACHN renal
KM12 colon = system: KM12 colon
RXF 393 renal = system: RXF 393 renal
EKVX NSCLC = system: EKVX NSCLC
A498 renal = system: A498 renal
TK-10 renal = system: TK-10 renal
NCI-H460 lung = system: NCI-H460 lung
HOP-92 NSCLC = system: HOP-92 NSCLC
U251 CNS = system: U251 CNS

| SMILES | TGI (HCT-116 colon) | TGI (ACHN renal) | TGI (KM12 colon) | TGI (RXF 393 renal) | TGI (EKVX NSCLC) | TGI (A498 renal) | TGI (TK-10 renal) | TGI (NCI-H460 lung) | TGI (HOP-92 NSCLC) | TGI (U251 CNS) | GI50 (HCT-116 colon) | GI50 (ACHN renal) | GI50 (KM12 colon) | GI50 (RXF 393 renal) | GI50 (EKVX NSCLC) | GI50 (A498 renal) | GI50 (TK-10 renal) | GI50 (NCI-H460 lung) | GI50 (HOP-92 NSCLC) | GI50 (U251 CNS) |
| --- | --- | --- | --- | --- | --- | --- | --- | --- | --- | --- | --- | --- | --- | --- | --- | --- | --- | --- | --- | --- |
| CC1(C)NC(=O)N(CCCCCCN2C(=O)NC(C)(C)C2=O)C1=O | > 100 µM | > 100 µM | > 100 µM | > 100 µM | > 100 µM | > 100 µM | > 100 µM | > 100 µM | > 100 µM | > 100 µM | – | – | – | – | – | – | – | – | – | – |
| O=C(Cc1ccccc1[N+](=O)[O-])C(CO)c1ccccc1[N+](=O)[O-] (configuration not stated) | > 100 µM | > 100 µM | > 100 µM | > 100 µM | > 100 µM | > 100 µM | > 100 µM | > 100 µM | 93.3 µM | > 100 µM | – | – | – | – | – | – | – | – | – | – |
| NC(=O)c1cccc2c(N[C@H](CN3CCC3)c3ccc(Cl)c(C(F)(F)F)c3)ncnc12 | 11.7 µM | 13.5 µM | 13.3 µM | 1.4 µM | 10.3 µM | 0.908 µM | 3.34 µM | 12.4 µM | 2.27 µM | 12.1 µM | 2.32 µM | 1.38 µM | 0.885 µM | 0.141 µM | 0.878 µM | 0.138 µM | 0.156 µM | 0.739 µM | 0.14 µM | 0.548 µM |
| N#Cc1c(NCc2ccccc2)nc(NCc2ccccc2)c(C#N)c1-c1ccc(Cl)cc1 | > 100 µM | > 100 µM | > 100 µM | > 100 µM | > 100 µM | > 50 µM and 89.7 µM | > 100 µM | > 100 µM | > 50 µM | > 50 µM and 40.8 µM | > 50 µM and 24.6 µM | > 50 µM and 43.4 µM | > 50 µM and 85.8 µM | 65.5 µM | 50.8 µM | > 50 µM and 33 µM | > 50 µM and 62.7 µM | > 50 µM and 34.4 µM | > 50 µM | > 50 µM and 19.2 µM |
| Cc1ccc(F)c(NC(=O)Nc2ccc(-c3cccc4[nH]nc(N)c34)cc2)c1 | 11.4 µM and > 10 µM | 11.4 µM and > 10 µM | 4.94 µM and 5.79 µM | 4.34 µM and 4.96 µM | 16.6 µM and > 10 µM | 7.02 µM and 9.3 µM | 14.6 µM and > 10 µM | 5.94 µM and 8.32 µM | 14.4 µM and 8.25 µM | 20.6 µM and > 10 µM | 3.12 µM and 3.5 µM | 3.14 µM and 2.85 µM | 1.64 µM and 1.55 µM | 1.96 µM and 1.92 µM | 3.58 µM and 3.52 µM | 2.24 µM and 2.71 µM | 3.6 µM and 2.84 µM | 2.42 µM and 2.76 µM | 3.67 µM and 3.17 µM | 3.49 µM and 3.16 µM |
| CC1CCCC(C(=O)CC2CC(=O)NC(=O)C2)C1=O (configuration not stated) | > 100 µM | > 100 µM | > 100 µM | > 100 µM | > 100 µM | > 100 µM | > 100 µM | > 100 µM | > 100 µM | > 100 µM | – | – | – | – | – | – | – | – | – | – |
| O=C(c1ccccc1)C(Cl)C(Cl)c1ccccc1 (configuration not stated) | 2.95 µM | 5.23 µM | 15.1 µM | 3.52 µM | 18.9 µM | 27.1 µM | 9.12 µM | 22.5 µM | 6.99 µM | 14.3 µM | 1.44 µM | 2.21 µM | 3.76 µM | 1.72 µM | 5.24 µM | 13.6 µM | 3.14 µM | 6.66 µM | 2.31 µM | 3.97 µM |
| O=C(CCCn1c2c(sc3ccccc32)c(=O)n2nnc(-c3ccccc3)c12)NCCc1cnc[nH]1 | – | 2.94 µM | 3.19 µM | 5.25 µM | 18.6 µM | 2.85 µM | 3.75 µM | 3.11 µM | 33 µM | 1.75 µM | – | 1.37 µM | 0.593 µM | 2.56 µM | 3.52 µM | 1.41 µM | 2 µM | 1.7 µM | 6.16 µM | 0.128 µM |
| COc1ccc2c(c1)[n+]([O-])c(-c1cccc(Cl)c1)c(N)[n+]2[O-] | > 100 µM | > 100 µM | > 100 µM | > 100 µM | > 100 µM | > 100 µM | – | > 100 µM | > 100 µM | > 100 µM | – | – | – | – | – | – | – | – | – | – |
| O=C1C(=c2ccc(=C3C(=O)c4ccc([N+](=O)[O-])cc4[N+]3=O)cc2)N([O-])c2cc([N+](=O)[O-])ccc21 | > 100 µM | > 100 µM | > 100 µM | > 100 µM | > 100 µM | > 100 µM | – | > 100 µM | > 100 µM | > 100 µM | > 100 µM | > 100 µM | > 100 µM | > 100 µM | > 100 µM | > 100 µM | – | > 100 µM | > 100 µM | > 100 µM |
| O=C(O)CN(c1ccccc1)S(=O)(=O)c1cccc([N+](=O)[O-])c1 | – | > 100 µM | > 100 µM | > 100 µM | > 100 µM | > 100 µM | > 100 µM | > 100 µM | > 100 µM | > 100 µM | – | – | – | – | – | – | – | – | – | – |
| Cn1cc(C2=C(c3c4n(c5ccccc35)CCNC4)C(=O)NC2=O)c2ccccc21 | > 25 µM | > 25 µM | > 25 µM | 14.1 µM | – | 14.3 µM | > 25 µM | > 25 µM | > 25 µM | > 25 µM | 9.68 µM | 7.93 µM | 8.63 µM | 3.73 µM | – | 4.71 µM | 11.3 µM | 10.6 µM | 11.5 µM | 9.23 µM |
